Experimental data: patent publication US8242109B2, “Compositions and methods relating to novel compounds and targets thereof” (priority 2007, dated 2012)
Like-named read-outs stand apart in the source and are kept apart here.

Columns and labels:
Ramos cells = experiment: Cytotoxicity in Ramos cells; format: cell-based; details: Homo sapiens, read-out: Ramos Cell EC50
Protocol: (§1) The compounds listed in Table 4 were tested for activity against F1F0-ATPase and cytotoxicity in Ramos cells. Inhibition of ATP synthesis and hydrolysis by the F1F0-ATPase was measured as described in K. M. Johnson et al., Chemistry & Biology 2005, 12, 485-496. Cytotoxicity in Ramos cells was measured as described in K. M. Johnson et al., Chemistry & Biology 2005, 12, 485-496, or using the alamarBlue™ Assay with fluorescence detection (U.S. Pat. No. 5,501,959) as supplied and described by Invitrogen (Carlsbad, Calif.).

F1F0-ATPase = target: T1, F1F0-ATPase (Bos taurus, UniProt P13621); experiment: Inhibition of ATP synthesis and hydrolysis by the F1F0-ATPase; format: biochemical
T1 construct: from tissue; host or cells: bovine sub-mitochondrial particles (SMPs)
Protocol: as §1

Row | Compound | EC50 (Ramos cells; cytotoxicity in Ramos cells) [µM] | IC50 (F1F0-ATPase; read-out: ATPase IC50) [µM] | IC50 (F1F0-ATPase) [µM] | EC50 (Ramos cells; Ramos) [µM]
1 | CC(C)NC(=O)Nc1ccc(C2=NC(Cc3ccccc3Br)C(=O)Nc3ccc(Cl)cc32)cc1 (stereo not drawn) [Compound 1, (Z)-1-(4-(3-(2-bromobenzyl)-7-chloro-2-oxo-2,3-dihydro-1H-benzo[e][1,4]diazepin-5-yl)phenyl)-3-isopropylurea] | < 5 | 5 to 10 |  | 
2 | CC(C)NC(=O)Nc1ccc(C2=NC(Cc3ccccc3C(F)(F)F)C(=O)Nc3ccc(Cl)cc32)cc1 (stereo not drawn) [Compound 2, (Z)-1-(4-(7-chloro-2-oxo-3-(2-(trifluoromethyl)benzyl)-2,3-dihydro-1H-benzo[e][1,4]diazepin-5-yl)phenyl)-3-isopropylurea] | < 5 | 5 to 10 |  | 
3 | CC(C)NC(=O)Nc1ccc(C2=NC(Cc3ccccc3F)C(=O)Nc3ccc(Cl)cc32)cc1 (stereo not drawn) [Compound 3, (Z)-1-(4-(7-chloro-3-(2-fluorobenzyl)-2-oxo-2,3-dihydro-1H-benzo[e][1,4]diazepin-5-yl)phenyl)-3-isopropylurea] | 5 to 10 | 5 to 10 |  | 
4 | CC(C)NC(=O)Nc1ccc(C2=NC(Cc3ccccc3Cl)C(=O)Nc3ccc(Cl)cc32)cc1 (stereo not drawn) [Compound 4, (Z)-1-(4-(7-chloro-3-(2-chlorobenzyl)-2-oxo-2,3-dihydro-1H-benzo[e][1,4]diazepin-5-yl)phenyl)-3-isopropylurea] | < 5 | 5 to 10 |  | 
5 | CNC(=O)Nc1ccc(C2=NC(Cc3ccccc3Cl)C(=O)Nc3ccc(Cl)cc32)cc1 (stereo not drawn) [Compound 5, (Z)-1-(4-(7-chloro-3-(2-chlorobenzyl)-2-oxo-2,3-dihydro-1H-benzo[e][1,4]diazepin-5-yl)phenyl)-3-methylurea] | 5 to 10 |  | 5 to 10 | 
6 | CN(C)CCNC(=O)Nc1ccc(C2=NC(Cc3ccccc3Cl)C(=O)Nc3ccc(Cl)cc32)cc1 (stereo not drawn) [Compound 6, (Z)-1-(4-(7-chloro-3-(2-chlorobenzyl)-2-oxo-2,3-dihydro-1H-benzo[e][1,4]diazepin-5-yl)phenyl)-3-(2-(dimethylamino)ethyl)urea] | < 5 | > 10 |  | 
7 | O=C(NCC(F)(F)F)Nc1ccc(C2=NC(Cc3ccccc3Cl)C(=O)Nc3ccc(Cl)cc32)cc1 (stereo not drawn) [Compound 7, (Z)-1-(4-(7-chloro-3-(2-chlorobenzyl)-2-oxo-2,3-dihydro-1H-benzo[e][1,4]diazepin-5-yl)phenyl)-3-(2,2,2-trifluoroethyl)urea] | < 5 | < 5 |  | 
8 | O=C(Nc1ccc(C2=NC(Cc3ccccc3Cl)C(=O)Nc3ccc(Cl)cc32)cc1)NC1CC1 (stereo not drawn) [Compound 8, (Z)-1-(4-(7-chloro-3-(2-chlorobenzyl)-2-oxo-2,3-dihydro-1H-benzo[e][1,4]diazepin-5-yl)phenyl)-3-cyclopropylurea] | < 5 | 5 to 10 |  | 
9 | COCCNC(=O)Nc1ccc(C2=NC(Cc3ccccc3Cl)C(=O)Nc3ccc(Cl)cc32)cc1 (stereo not drawn) [Compound 9, (Z)-1-(4-(7-chloro-3-(2-chlorobenzyl)-2-oxo-2,3-dihydro-1H-benzo[e][1,4]diazepin-5-yl)phenyl)-3-(2-methoxyethyl)urea] | < 5 | 5 to 10 |  | 
10 | CCOCCNC(=O)Nc1ccc(C2=NC(Cc3ccccc3Cl)C(=O)Nc3ccc(Cl)cc32)cc1 (stereo not drawn) [Compound 10, (Z)-1-(4-(7-chloro-3-(2-chlorobenzyl)-2-oxo-2,3-dihydro-1H-benzo[e][1,4]diazepin-5-yl)phenyl)-3-(2-ethoxyethyl)urea] | < 5 | 5 to 10 |  | 
11 | CNC(=O)Nc1ccc(C2=NC(Cc3ccccc3Br)C(=O)Nc3ccc(Cl)cc32)cc1 (stereo not drawn) [Compound 11, (Z)-1-(4-(3-(2-bromobenzyl)-7-chloro-2-oxo-2,3-dihydro-1H-benzo[e][1,4]diazepin-5-yl)phenyl)-3-methylurea] | < 5 |  | 5 to 10 | 
12 | CN(C)CCNC(=O)Nc1ccc(C2=NC(Cc3ccccc3Br)C(=O)Nc3ccc(Cl)cc32)cc1 (stereo not drawn) [Compound 12, (Z)-1-(4-(3-(2-bromobenzyl)-7-chloro-2-oxo-2,3-dihydro-1H-benzo[e][1,4]diazepin-5-yl)phenyl)-3-(2-(dimethylamino)ethyl)urea] | < 5 | 5 to 10 |  | 
13 | O=C(NCC(F)(F)F)Nc1ccc(C2=NC(Cc3ccccc3Br)C(=O)Nc3ccc(Cl)cc32)cc1 (stereo not drawn) [Compound 13, (Z)-1-(4-(3-(2-bromobenzyl)-7-chloro-2-oxo-2,3-dihydro-1H-benzo[e][1,4]diazepin-5-yl)phenyl)-3-(2,2,2-trifluoroethyl)urea] | < 5 | < 5 |  | 
14 | O=C(Nc1ccc(C2=NC(Cc3ccccc3Br)C(=O)Nc3ccc(Cl)cc32)cc1)NC1CC1 (stereo not drawn) [Compound 14, (Z)-1-(4-(3-(2-bromobenzyl)-7-chloro-2-oxo-2,3-dihydro-1H-benzo[e][1,4]diazepin-5-yl)phenyl)-3-cyclopropylurea] | < 5 | 5 to 10 |  | 
15 | COCCNC(=O)Nc1ccc(C2=NC(Cc3ccccc3Br)C(=O)Nc3ccc(Cl)cc32)cc1 (stereo not drawn) [Compound 15, (Z)-1-(4-(3-(2-bromobenzyl)-7-chloro-2-oxo-2,3-dihydro-1H-benzo[e][1,4]diazepin-5-yl)phenyl)-3-(2-methoxyethyl)urea] | < 5 | 5 to 10 |  | 
16 | CCOCCNC(=O)Nc1ccc(C2=NC(Cc3ccccc3Br)C(=O)Nc3ccc(Cl)cc32)cc1 (stereo not drawn) [Compound 16, (Z)-1-(4-(3-(2-bromobenzyl)-7-chloro-2-oxo-2,3-dihydro-1H-benzo[e][1,4]diazepin-5-yl)phenyl)-3-(2-ethoxyethyl)urea] | < 5 | 5 to 10 |  | 
17 | Cc1ccccc1CC1N=C(c2ccc(O)cc2)c2cc(Cl)ccc2NC1=O (stereo not drawn) [Compound 17, (Z)-7-chloro-5-(4-hydroxyphenyl)-3-(2-methylbenzyl)-1H-benzo[e][1,4]diazepin-2(3H)-one] |  |  | 5 to 10 | 5 to 10
18 | Cc1ccccc1CC1N=C(c2ccc(O)cc2)c2cc(Cl)ccc2N(C)C1=O (stereo not drawn) [Compound 18, (Z)-7-chloro-5-(4-hydroxyphenyl)-1-methyl-3-(2-methylbenzyl)-1H-benzo[e][1,4]diazepin-2(3H)-one] | > 10 |  | > 10 | 
19 | Cc1cccc(CC2N=C(c3ccc(O)cc3)c3cc(Cl)ccc3NC2=O)c1 (stereo not drawn) [Compound 19, (Z)-7-chloro-5-(4-hydroxyphenyl)-3-(3-methylbenzyl)-1H-benzo[e][1,4]diazepin-2(3H)-one] |  |  | 5 to 10 | 5 to 10
20 | Cc1cccc(CC2N=C(c3ccc(O)cc3)c3cc(Cl)ccc3N(C)C2=O)c1 (stereo not drawn) [Compound 20, (Z)-7-chloro-5-(4-hydroxyphenyl)-1-methyl-3-(3-methylbenzyl)-1H-benzo[e][1,4]diazepin-2(3H)-one] | > 10 |  | > 10 | 
21 | Cc1ccc(CC2N=C(c3ccc(O)cc3)c3cc(Cl)ccc3NC2=O)cc1 (stereo not drawn) [Compound 21, (Z)-7-chloro-5-(4-hydroxyphenyl)-3-(4-methylbenzyl)-1H-benzo[e][1,4]diazepin-2(3H)-one] |  |  | 5 to 10 | 5 to 10
22 | Cc1ccc(CC2N=C(c3ccc(O)cc3)c3cc(Cl)ccc3N(C)C2=O)cc1 (stereo not drawn) [Compound 22, (Z)-7-chloro-5-(4-hydroxyphenyl)-1-methyl-3-(4-methylbenzyl)-1H-benzo[e][1,4]diazepin-2(3H)-one] | > 10 |  | > 10 | 
23 | CN1C(=O)C(Cc2ccccc2Br)N=C(c2ccc3[nH]c(=O)[nH]c3c2)c2cc(Cl)ccc21 (stereo not drawn) [Compound 35, (Z)-3-(2-bromobenzyl)-7-chloro-1-methyl-5-(2-oxo-2,3-dihydro-1H-benzo[d]imidazol-5-yl)-1H-benzo[e][1,4]diazepin-2(3H)-one] |  |  |  | 5 to 10
